Bounds are passed on as bounds.

`Cc1cccc(-c2nc3ccc(Cl)nn3c2-c2ccnc(Nc3ccccc3C)c2)c1` showed a melting point of 191 to 192 °C.

For the compound `Cc1oncc1-c1cncc(OC2SCC(O)C(O)C2O)c1` (stereo unspecified), the melting point was found to be 209 °C.

In the case of `COc1ccc2sc(C(=O)OCC(C)(C)C(=O)C(C)(C)C)cc2c1`, the melting point fell in the range of 74 to 75.5 °C.

`COc1ccc(NN=C2CCCCC2=O)cc1` returned a melting point of 177 °C.

`COc1ccc([C@H](C)NC(=O)c2cccnc2Oc2ccc(F)cc2)cc1` showed a melting point of 97 to 99 °C.

`Cc1cc(C2=CCCCC2)c(OP2OCC(C)(C)CO2)c(C(C)(C)C)c1`: the melting point fell in the range of 97 to 102 °C.

`O=c1ccccn1[C@@H]1c2cc(C(F)(F)F)ccc2OC(CF)(CF)[C@H]1O` (relative stereo) came in with a melting point of 210 to 212 °C.

In turn, `OC(Cc1ccc2ccccc2n1)C(Cl)(Cl)Cl` (stereo unspecified) displayed a melting point of 156 to 158 °C.

Regarding `COC(=O)CCCCc1ccc(O)c(CCC(=O)OC)n1`, the melting point is 92 to 95 °C.

In turn, `OCCN(CCO)CC(c1ccc(Cl)cc1)c1ccc(Cl)cc1` yielded a melting point of 75 to 76 °C.

The compound `CCOC(=O)c1cn2c3c(c(-c4ccccc4)c(F)cc3c1=O)OCC2C` (stereo unspecified) showed a melting point of 270 to 272 °C.

Take `N#Cc1cc(F)c(-c2ncnc(C(F)F)c2Cl)cc1[N+](=O)[O-]`: the melting point is 100 to 102 °C.

Turning to `CCOC(=O)CNc1nc(Cl)ccc1[N+](=O)[O-]`, the melting point was 77.5 to 80 °C.

With `CCC(CC)N1CCC(CNc2ccc(Cl)cc2C(=O)Nc2ccc(C)cn2)CC1`, the melting point was 122 to 124 °C.

Compound `COc1cc([N+](=O)[O-])ccc1S(=O)(=O)N1C(=O)C(NC(C)=O)(c2ccccc2Cl)c2cc(Cl)ccc21` (stereo unspecified) yielded a melting point of 205 to 210 °C.

As to `ClC1=NCc2c(-c3noc(C4CC4)n3)ncn2-c2ccc(Cl)cc21`, the melting point amounted to 200 °C.

Compound `CCOC(=O)c1cnc2c(-c3ccc(Cc4cccc(OC)c4)c(OC)c3)cnn2c1O` returned a melting point of 226 to 238 °C.

Consider `NC(=O)C1=C(c2ccccc2)C(c2ccccc2)OC1=O` (stereo unspecified), for which the melting point lay within 125 to 127 °C.

In the case of `CCCC(CCC)C(=O)N[C@H](C(=O)N[C@H]1CCO[C@@H]1OC)C(C)C`, the melting point fell in the range of 150 to 156 °C.

Regarding `CSC(C)(C)C(NS(=O)(=O)c1ccc(Oc2ccccc2)cc1)C(=O)O` (stereo unspecified), the melting point was in the range of 156 to 158 °C.

`COC(=O)c1ccccc1NC(=O)NCC1(c2ccccc2)CCCCC1` displayed a melting point of 91 to 94 °C.

In the case of `O=C1CC(=O)N(Cc2ccccc2)[C@H](Cc2ccccc2)C1`, the melting point was in the range of 97 to 97.5 °C.

For `N#Cc1cc(C=O)cc(O)c1O`, the melting point is 210 to 215 °C.

`CCOC(=O)c1c(C(F)(F)F)nc(C(F)F)c(C(=O)OC)c1Cl` registered a melting point of 24 to 25 °C.

Consider `CCOc1ccccc1COc1ccc2c(c1)C=C(C(=O)Nc1ccc(CN(C)C3CCOCC3)cc1)CCS2(=O)=O`, for which the melting point fell in the range of 211 to 214 °C.

Regarding `CC(C)C(NC(=O)OC(C)(C)C)C(=O)NC(C(=O)OCC1OC(n2cc(C=CBr)c(=O)[nH]c2=O)CC1N=[N+]=[N-])C(C)C` (stereo unspecified), the melting point lay in the range of 95 to 97 °C.

As for `NC(=O)NC(CS)Cc1ccccc1` (single isomer, unassigned; (+)), the melting point was 118 °C.

`CCOc1ccc(C(=O)C2=C(O)C(=O)N(c3ccc(C)nn3)C2c2ccc(OC(F)(F)F)cc2)cc1` (stereo unspecified) came in with a melting point of 255 to 257 °C.

As for `Cn1nc(-c2cnc(N)nc2-c2cccc(F)c2)ccc1=O`, the melting point was found to be 212 °C.

`CCCN(Cc1ccc(-c2ccccc2-c2nnn[nH]2)cc1)c1ccncc1C(=O)O` showed a melting point of 195 to 200 °C.

In turn, `CN(CC(=O)O)C(=O)CCc1nc2c(F)c(F)cc(F)c2s1` came in with a melting point of 138 to 140 °C.

In turn, `CNC(=O)c1cccc(NC(=O)Cc2ccc3c(c2)CC(C)(C)O3)c1` gave a melting point of 92 to 93 °C.

`O=[N+]([O-])c1c(-c2c(C(F)(F)F)[nH]c(-c3ccc(Cl)cc3)c2[N+](=O)[O-])csc1Br` gave a melting point of 186 to 190 °C.

Compound `COC(=O)c1c(-c2ccccc2Cl)c2cc(C)cc(C)c2n(C)c1=O` showed a melting point of 128 to 129 °C.

`CC(Oc1ccc([N+](=O)[O-])cc1)C(=O)OCCOC(=O)C(C)Oc1ccc([N+](=O)[O-])cc1` (stereo unspecified) displayed a melting point of 118 to 120 °C.

`Cc1nc2c(o1)-c1c(SC(C)C)sc(C(=O)O)c1CC2` yielded a melting point of 277 to 278 °C.

The compound `COc1cccc(-c2nn(C(C)c3oc4ccccc4c(=O)c3-c3ccccc3)c3ncnc(N)c23)c1` (stereo unspecified) returned a melting point of 176 to 178 °C.

In turn, `CN1C(=O)C2(COc3cc4c(cc32)OCCO4)c2c(Oc3ccccn3)cccc21` (stereo unspecified) registered a melting point of 219 to 221 °C.

In turn, `COc1ccc2c3c([nH]c2c1[N+](=O)[O-])C(O)CC3` (stereo unspecified) had a melting point of 192 °C.

Regarding `CCCCCCCCCCOc1ccc(C(O)C(O)c2ccc(C(=O)OC)cc2)nc1CCC(=O)OC` (mixture of isomers), the melting point is 88 to 92 °C.

Compound `COc1ccc(O)cc1/C=C/C(=O)CC(=O)/C=C/c1cc(O)ccc1Br` displayed a melting point of 90 to 96 °C.

Compound `NCCCCCCO[PH](=O)CC(=O)O` (stereo unspecified) returned a melting point of 236 to 238 °C.

Turning to `COC(=O)c1ccc2oc(-c3ccccc3O)cc(=O)c2c1`, the melting point was 290 to 291 °C.

Compound `COCc1c(C=O)ncc2c1c1c(OCc3ccccc3)cccc1n2CC(=O)N(C)CCc1ccccc1` showed a melting point of 192 to 197 °C.

`CC(C)CN(C)c1cc2c(cc1C(F)(F)F)NC(=O)CC(c1cccc(-n3cncn3)c1)=N2` had a melting point of 198 °C.

Turning to `CCOC(=O)c1cc2c(nc1C(=O)OCC)CCSC2`, the melting point lay in the range of 65 to 66 °C.

`CCOC(=O)NN=C(c1ccc(Cl)cc1)c1ccc(OP(=S)(OCC)OCC)cc1`: the melting point was 106 °C.

In turn, `CC1CCC(C(=O)N(C)C)=C2NC=CC(=O)N21` (stereo unspecified) displayed a melting point of 78 °C.

`O=C(O)c1c2n(c3cc(N4CCN(CCO)CC4)c(F)cc3c1=O)CCS2` displayed a melting point of 256 °C.

With `O=C(O)c1cn(-c2cc(O)c(F)cc2[N+](=O)[O-])c2c(Cl)c(F)c(F)cc2c1=O`, the melting point fell in the range of 248 to 255 °C.

As to `CC(N)c1c[nH]c(-c2ccccc2)n1` (stereo unspecified), the melting point is 30 °C.

Compound `O=C(O)CCC(=O)N1CCc2cc(S(=O)(=O)N3CCN(c4cccc(Cl)c4)CC3)ccc21` came in with a melting point of 228 to 230 °C.

Consider `Cc1cc([N+](=O)[O-])cc2c1S(=O)C=N2` (stereo unspecified), for which the melting point was more than 250 °C.

The compound `O=C1CCC(c2ccc3[nH]c(-c4ccccc4Cl)cc3c2)=NN1` displayed a melting point of 236 to 239 °C.

As to `CN1CCCC(Cn2nc(-c3c(-c4ccccc4)nn4ccccc34)ccc2=O)C1` (stereo unspecified), the melting point lay in the range of 159 to 160 °C.

Consider `CCCCCCCCCCCCCCCCCCOc1cc(OCCCOc2ccc(S(C)(=O)=O)cc2)cc(C(=O)OC)c1`, for which the melting point was in the range of 101 to 102 °C.

For the compound `COC(=O)COc1ccc(-c2cccc3sc4ccccc4c23)cc1`, the melting point was 148 to 150 °C.

`O=C(Nc1nnn[nH]1)c1csc(-c2ncccc2O)n1` gave a melting point of more than 300 °C.

In turn, `Cc1cc(C)c(-c2cccc3c(O)cc(C)nc23)c(C)c1` showed a melting point of more than 250 °C.

Regarding `NC(=O)C1=C(C(=O)Nc2cc(OC3CCCC3)c(Cl)cc2F)CCCC1`, the melting point is 200 to 201 °C.

Consider `CN1CC(CCN(C)c2ccccc2)Oc2ncccc2C1=S` (stereo unspecified), for which the melting point fell in the range of 164 to 165 °C.

Take `CC(C)(C)[Si](C)(C)O[C@@H]1[C@H](O)C[C@]2(O[Si](C)(C)C(C)(C)C)C[C@H]1OC2=O`: the melting point is 107 to 108 °C.

Compound `CC(C)(C)CC(=O)N1C[C@@H](c2c[nH]c3ccccc23)[C@H](c2cn3c4c(cccc24)CCC3)C1` came in with a melting point of 202 to 204 °C.

`CCNCC1CCN(c2c(F)cc3c(=O)c(C(=O)O)cn(C4CCC4)c3c2F)C1` (stereo unspecified): the melting point was in the range of 223 to 225 °C.

The compound `O=C(C=Cc1cccc(S(=O)(=O)N2CCN(c3ccccc3F)CC2)c1)NO` gave a melting point of 176 °C.

For `CO/N=C(\C)[C@H]1CC[C@H]2[C@@H]3CCC4=CC(=O)CC[C@]4(C)[C@H]3CC[C@]12C`, the melting point fell in the range of 180 to 182 °C.

In turn, `CC1(C)CCC(C)(C)c2cc(C(=O)Nc3ccccc3)ccc21` gave a melting point of 144 to 146 °C.

As for `Cc1ccc(S(=O)(=O)NCC(C)NS(=O)(=O)c2ccc(C)cc2)cc1` (stereo unspecified), the melting point was in the range of 105 to 107 °C.

In turn, `CC(C)[C@H](COc1ccccc1)Nc1nc(Cl)nc2c1ncn2[C@@H]1O[C@H](CO)[C@@H](O)[C@H]1O` had a melting point of 95 to 100 °C.

Turning to `O=C(C=C1CCN(Cc2ccc(F)cc2)CC1)NCc1ccc(F)c(F)c1`, the melting point was in the range of 83 to 85 °C.

With `CC(=O)CC(=O)NCC1C(NC(=O)CC(C)=O)C(C)CC1(C)C` (stereo unspecified), the melting point is 94 to 114 °C.

As to `Oc1nc(-c2ccccc2)nc(-c2ccccc2)n1`, the melting point lay within 296 to 297 °C.

Regarding `CN1CCCC1=C(C#N)c1ccc([N+](=O)[O-])cc1`, the melting point amounted to 67 °C.

As to `CCCc1c(OCCCCCCCC(=O)O)ccc(C(C)=O)c1O`, the melting point was 73 to 76 °C.

For `OCC12CC3CC(CC(C3)C1Br)C2` (stereo unspecified), the melting point is 138 °C.

As for `Nc1ncnc2c1sc(=O)n2C1OC(CO)C(O)C1O` (stereo unspecified), the melting point lay within 248 to 250 °C.

For `O=C(CCl)Nc1ccc2c(c1NC(=O)c1ccccc1C(F)(F)F)C(=O)c1ccccc1C2=O`, the melting point is 248 to 250 °C.

In the case of `COC(=O)N1CCN(Cc2nc(-c3ccc4c(c3)Nc3ccccc3S4)cs2)CC1`, the melting point fell in the range of 180 to 182 °C.

`COc1cc2c(c3c1OC(C)(C)C3)C(c1ccc(-c3ccc(NC(C)=O)cc3)cc1)=NC(C)(C)C2` came in with a melting point of 128 to 132 °C.

`COc1cc2ncnc(N3CCC(C(C)=O)CC3)c2cc1OC` registered a melting point of 116 to 117 °C.

`O=C1C=C(c2ccccc2)NCCN1`: the melting point fell in the range of 204 to 206 °C.

In turn, `c1cc(COc2ccc3ccccc3c2)cc(-c2nnn[nH]2)c1` registered a melting point of 200 to 202 °C.

`CCOC(=O)C1COc2c(C(=O)c3ccccc3)cccc21` (stereo unspecified) registered a melting point of 42 to 43 °C.

The compound `COc1cc(C)cc(Sc2cccc(F)c2C#N)c1` gave a melting point of 94 to 95 °C.

As to `COc1ccc(C(=Cc2nnnn2C)c2ccc(OC)cc2)cc1`, the melting point fell in the range of 146 to 147 °C.

Compound `O=[N+]([O-])c1ccc(S(=O)(=O)NCC2CCN(C[C@H]3COc4ccc(Cl)cc4O3)CC2)cc1` came in with a melting point of 147 to 148 °C.

Usually melting point stands for the temperature of the solid-liquid transition.
